In paper PMC4150021 (Nature, 2014):

Test system: PANC1 cells
Test: Colony formation / growth, PANC1
Assay type: cell-based, human
Details: data not shown

Nc1ncnc2nc(-c3ccc(N4CCOCC4)nc3)cc(-c3cccc(Br)c3)c12 [ABT-702]
growth impairment of PANC1 cells: did not observe any growth impairment
